Activity calls are given as the source filed them. No cut-off for these calls is given here.
Columns and labels:
[1] = target: T1, Prostaglandin G/H synthase 1 (Ovis aries) (UniProt P05979); test: Inhibition of recombinant ovine COX1 using arachidonic acid as substrate assessed as Kinact/Ki ratio preincubated with compound for 10 to 40 mins followed by substrate addition and measured after 10 mins by LC-MS/MS analysis; conditions: time 20-50 min
T1 sequence (whole entry): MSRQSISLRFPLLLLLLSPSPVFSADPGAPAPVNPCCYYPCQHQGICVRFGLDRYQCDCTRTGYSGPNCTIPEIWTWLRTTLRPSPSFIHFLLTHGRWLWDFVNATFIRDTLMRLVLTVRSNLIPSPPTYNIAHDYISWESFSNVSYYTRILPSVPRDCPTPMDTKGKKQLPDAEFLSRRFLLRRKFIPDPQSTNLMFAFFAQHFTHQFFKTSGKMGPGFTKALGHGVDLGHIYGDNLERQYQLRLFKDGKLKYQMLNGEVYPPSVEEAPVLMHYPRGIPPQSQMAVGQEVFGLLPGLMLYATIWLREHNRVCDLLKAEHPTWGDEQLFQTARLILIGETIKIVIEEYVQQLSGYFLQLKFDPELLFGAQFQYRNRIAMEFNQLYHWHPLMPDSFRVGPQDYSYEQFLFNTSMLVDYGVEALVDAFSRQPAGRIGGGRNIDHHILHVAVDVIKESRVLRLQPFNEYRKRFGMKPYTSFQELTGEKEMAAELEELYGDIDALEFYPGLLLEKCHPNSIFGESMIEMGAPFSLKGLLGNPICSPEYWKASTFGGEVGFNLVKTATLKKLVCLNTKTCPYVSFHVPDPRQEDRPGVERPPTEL

[2] = target: T1, Prostaglandin G/H synthase 1 (Ovis aries); test: Covalent inhibition of recombinant ovine COX1 using arachidonic acid as substrate assessed as inhibition rate preincubated with compound for 10 to 40 mins followed by substrate addition and measured after 10 mins by LC-MS/MS analysis; conditions: time 20-50 min
[3] = target: T1, Prostaglandin G/H synthase 1 (Ovis aries); test: Covalent inhibition of recombinant ovine COX-1 using arachidonic acid as substrate assessed as reduction in PGE2 production preincubated with compound followed by substrate addition and measured after 10 mins by LC-MS/MS analysis; conditions: time 70-310 min, TDE = time-dependent effect
[4] = target: T2, Prostaglandin G/H synthase 1 (Ovis aries, UniProt P05979); test: Non-covalent binding affinity to recombinant ovine COX1 using arachidonic acid as substrate assessed as binding constant preincubated with compound for 10 to 40 mins followed by substrate addition and measured after 10 mins by LC-MS/MS analysis
T2 sequence (P05979 whole entry): T1 sequence (whole entry)

[5] = target: Prostaglandin G/H synthase 1 (Homo sapiens) (UniProt P23219); test: Covalent inhibition of COX1 in LPS-treated human A549 cells using arachidonic acid as substrate assessed as reduction in PGE2 production at 15 uM preincubated with compound for 24 hrs followed by washout and measured after 20 mins of substrate addition by LC-MS/MS analysis
[6] = target: T1, Prostaglandin G/H synthase 1 (Ovis aries); test: Covalent inhibition of recombinant ovine COX1 using arachidonic acid as substrate assessed as reduction in PGE2 production at 10 uM preincubated with compound for 16 hrs followed by substrate addition for 10 mins in the presence of AcSNAC and measured after 16 hrs of dialysis by LC-MS/MS analysis; conditions: time 970.0 min
A549 = test: Cytotoxicity against human A549 cells assessed as reduction in cell viability at 15 uM by MTT assay; format: toxicity, cell-based; conditions: a549, 15 µM
[7] = target: T1, Prostaglandin G/H synthase 1 (Ovis aries); test: Covalent inhibition of recombinant ovine COX1 using arachidonic acid as substrate assessed as acetylation at Ser530 residues preincubated with compound followed by substrate addition and measured after 10 mins by LC-MS/MS analysis
[8] = target: T1, Prostaglandin G/H synthase 1 (Ovis aries); test: Covalent inhibition of recombinant ovine COX1 using arachidonic acid as substrate assessed as reduction in PGE2 production preincubated with compound for 6 hrs followed by substrate addition for 10 mins and measured after 8 hrs of dialysis by LC-MS/MS analysis; conditions: time 370.0 min
[9] = target: T2, Prostaglandin G/H synthase 1; test: Covalent inhibition of recombinant ovine COX-1 using arachidonic acid as substrate assessed as reduction in PGE2 production preincubated with compound for 5 hrs followed by substrate addition and measured after 10 mins by LC-MS/MS analysis
[10] = target: Prostaglandin G/H synthase 1 (Homo sapiens) (UniProt P23219); test: Covalent inhibition of COX1 in LPS-treated human A549 cells using arachidonic acid as substrate assessed as reduction in PGE2 production at 40 uM preincubated with compound for 12 hrs followed by washout and measured after 20 mins of substrate addition by LC-MS/MS analysis
[11] = target: Prostaglandin G/H synthase 1 (Homo sapiens) (UniProt P23219); test: Covalent inhibition of COX1 in LPS-treated human A549 cells using arachidonic acid as substrate assessed as reduction in PGE2 production at 40 uM measured every 24 hrs by LC-MS/MS analysis; conditions: time <= 48.0 hrs, TDE = time-dependent effect
[12] = target: T2, Prostaglandin G/H synthase 1; test: Covalent inhibition of recombinant ovine COX-1 using arachidonic acid as substrate assessed as reduction in PGE2 production preincubated with compound for 1 hrs followed by substrate addition and measured after 10 mins by LC-MS/MS analysis
[13] = target: T1, Prostaglandin G/H synthase 1 (Ovis aries); test: Covalent inhibition of recombinant ovine COX1 using arachidonic acid as substrate assessed as reduction in PGE2 production preincubated with compound followed by substrate addition and measured after 10 mins by LC-MS/MS analysis relative to control
[14] = target: T1, Prostaglandin G/H synthase 1 (Ovis aries); test: Covalent inhibition of recombinant ovine COX1 using arachidonic acid as substrate assessed as residual activity preincubated with compound for 6 hrs followed by substrate addition for 10 mins and measured after 8 hrs of dialysis by LC-MS/MS analysis relative to control; conditions: time 370.0 min
[15] = target: T1, Prostaglandin G/H synthase 1 (Ovis aries); test: Covalent inhibition of recombinant ovine COX1 using arachidonic acid as substrate assessed as reduction in PGE2 production at 40 uM preincubated with compound for […] followed by substrate addition and measured after 10 mins in the presence of AcSNAC by LC-MS/MS analysis; conditions: time 370.0 min

Structure (SMILES) | Ratio [1] | Kinact [2] | inhibition [3] | Ki [4] | Activity (A549) | further results
C#CCNC(=O)c1ccccc1SC(C)=O | 2.4 10^-3/min/µM | 2.5 10^-2/min | Tde | 15.2 µM |  | 
CCCCC#CCNC(=O)c1ccccc1S |  |  |  |  | Non-Toxic | inhibition [5]: 60%; inhibition [6]: Active
CCCCC#CCNC(=O)c1ccccc1SC(C)=O | 2.58 10^-3/min/µM | 2.2 10^-2/min | Tde | 8.9 µM | Non-Toxic | inhibition [7]: Active; inhibition [8]: Active
CCCCCCNC(=O)c1ccccc1SC(C)=O | 0.65 10^-3/min/µM | 2.1 10^-2/min |  | 33.9 µM |  | IC50 [9]: 10 µM; inhibition [7]: Active; inhibition [10]: Active; inhibition [11]: Tde; IC50 [12]: 50 µM
CCCCC#CCNC(=O)c1ccccc1SC |  |  |  |  |  | inhibition [13]: 97%; Activity [14]: 83%
CCCCCCNC(=O)c1ccccc1S |  |  |  |  |  | inhibition [10]: Active; inhibition [15]: Active
CC(=O)Oc1ccccc1C(=O)O [ASPIRIN] |  |  | Tde |  | Non-Toxic | 
